Experimental data: patent publication US20230060873A1, “COMPOUNDS AND METHODS FOR FORMING ION CHANNELS IN BIOLOGICAL MEMBRANES” (Washington University, priority 2021, published 2023)

Tests used:
[1] = Planar lipid bilayer ion channel recordings; type: biochemical
Protocol: Experiments in planar lipid bilayers were performed via a Nanion Orbit-mini planar bilayer system. The planar membranes were formed by painting a 25 mg/mL solution of lipids in n-nonane over the four 50 μm apertures on the chip. The lipids used were asolectin from soybean (Sigma-Aldrich) or a 3:1 w/w mix of 1-palmitoyl-2-oleoyl-sn-glycero-3-phosphoethanolamine (POPE) and 1-palmitoyl-2-oleoyl-sn-glycero-3-phospho-(1′-rac-glycerol) (POPG) (Avanti Polar lipids). The solutions tested were KCl solution (150 mM KCl, 10 mM HEPES, pH adjusted to 7.4 with KOH), NaCl solution (150 mM NaCl, 10 mM HEPES, pH adjusted to 7.4 with NaOH), and a concentrated KCl solution (500 mM KCl, 10 mM HEPES, pH adjusted to 7.4 with KOH). When the appropriate membrane formed, the voltage was clamped at 100 mV or −100 mV, and a stock solution of gramicidin D (Sigma-Aldrich) in DMSO or LEC10 in TFE were added up to the desired concentration. The tested concentration of gramicidin D was 1 nM and 2, 10, 100 and 200 μM were tested for LEC10. Two different temperatures were tested for each condition: 25 and 37° C. The current was recorded over 10 min for the gramicidin test and up to 1 h for the LEC10 test. The data was analyzed with Clampfit 10.7 software (Axon Instruments).
FIGS. 41 and 42 show the lipid bilayer recordings. Current through the asolectin planar lipid bilayer clamped at 100 mV was recorded in the presence of […] (FIG. 41) and 2 μM LEC10 (FIG. 42). In both cases, the solution was 150 mM KCl, 10 mM HEPES, pH 7.4. […] This lack of unitary channel formation, or even a carrier-like increase of the conductance, precludes an ionophore-like mechanism of ion transport.

B. subtilis membrane = assay: DiSC3(5) depolarization assay, lariat ethers; type: cell-based, Bacillus subtilis; details: for DiSC3(5) release: 2 μM, cation-free dextrose solution
Protocol: Dialkylated lariat ethers LEC6-LEC14 were then tested for their ability to depolarize a B. subtilis membrane using the fluorescent dye 3,3-dipropylthiadicarbocyanine (DiSC3(5)), which undergoes membrane voltage-dependent partitioning between the intracellular and the extracellular medium. FIGS. 23-31 show the time course of the DiSC3(5) fluorescence due to the activity of dialkylated lariat ethers with alkyl chains 6 to 14 carbons in length. The experiment was performed in a NMDG-MeSO3 solution (100 mM NMDG, 10 mM HEPES, pH adjusted to 7.4 with methanesulfonic acid). The events are: t1, addition of dye; t2, addition of B. subtilis; t3, addition of a 2 M KCl or a 2 M NMDG-Cl solution up to a final concentration of 60 mM; t4, addition of dialkylated lariat ether up to 2 μM. Control experiments were performed that were similar to the two previously described experiments, with the exception that additional NMDG-MeSO3 solution without cells was added at timepoint t2. The experiments were normalized relative to the final fluorescence intensity in the control experiments, as described below.
To conduct the experiments shown in FIGS. 23-31, a 2-mL liquid culture of B. subtilis cells was grown at 37° C. in LB media until OD600=0.600, and then collected by centrifugation at 2000 rpm during 3 min. The bacteria were washed once in NMDG-MeSO3 solution (100 mM NMDG, 10 mM HEPES, pH adjusted to 7.4 with methanesulfonic acid) or dextrose solution (200 mM dextrose, 10 mM Tris, pH adjusted to 7.4 with HCl) depending on the experiment. The centrifugation step was repeated and the bacteria were resuspended until OD600=1.0 in the same solution. The working dye solution was a 200 μM solution of DiSC3(5) (3,3′-dipropylthiadicarbocyanine iodide; Tokyo Chemical Industry) in DMSO. […] After 150 sec (timepoint t3, 250 sec) the fluorescence stabilized to a minimum intensity and 100 μL of 2M NMDG-Cl, 2M NaCl or 2 M KCl solution was added to reach a about 60 mM final concentration of the salt. […] Fluorescence intensity was recorded each second using a Horiba Fluoromax 4 spectrometer (excitation wavelength=640 nm; emission wavelength=670 nm). […] To normalize the fluorescence, experiments in the same conditions but without adding bacteria were performed, normalization was done by dividing the fluorescence by the final fluorescence level of these experiments.
Cell hyperpolarization (more negatively charged inside the cell) results in an uptake of the dye, while cell membrane depolarization (more positively charged inside the cell) results in a release of the dye. The accumulation of the dye in the interior of the cell can be detected by a decrease in fluorescence due to self-quenching, which enables the dye to be utilized as an indirect reporter of changes in cell membrane voltage. […]

CCCCCCCCCCN1CCOCCOCCN(CCCCCCCCCC)CCOCCOCC1 [LEC10, Didecyl diaza(18-crown-6)]
ion channel activity ([1]; 2 μM, bilayer clamped at 100 mV, 150 mM KCl, 10 mM HEPES, pH 7.4): no ion channel activity was detected | ion channel activity ([1]; LEC10 10, 100 and 200 μM, KCl up to 500 mM or NaCl instead of KCl): no indication of ion channel activity | relative DiSC3(5) release in the presence of different cations (B. subtilis membrane; 2 μM compound, 60 mM KCl, NaCl or NMDG-Cl, NMDG-MeSO3 solution, 25° C): no significant differences | DiSC3(5) release (B. subtilis membrane; 60 mM KCl added): large DiSC3(5) release | DiSC3(5) release (B. subtilis membrane; absence of any external cation): same effect was also observed
